{"source": "patent US20200289431A1", "about": "(priority 2019, published 2020)", "origin": "cited, not measured here", "key": {"[1]": {"conditions": "in vivo"}, "[2]": {"molecular_target": "cannabinoid CB2 receptor (Homo sapiens, UniProt P34972)", "sequence (P34972 whole entry)": "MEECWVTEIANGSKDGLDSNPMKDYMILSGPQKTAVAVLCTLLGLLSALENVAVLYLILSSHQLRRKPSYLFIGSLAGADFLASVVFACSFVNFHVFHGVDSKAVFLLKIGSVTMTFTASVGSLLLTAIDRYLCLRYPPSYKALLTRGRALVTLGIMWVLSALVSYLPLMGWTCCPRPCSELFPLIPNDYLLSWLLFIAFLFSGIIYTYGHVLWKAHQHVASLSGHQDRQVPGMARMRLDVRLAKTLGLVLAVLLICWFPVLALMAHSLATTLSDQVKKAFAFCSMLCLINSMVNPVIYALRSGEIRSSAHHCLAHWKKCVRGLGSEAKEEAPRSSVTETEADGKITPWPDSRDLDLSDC"}}}
{"smiles": "C=C(C)[C@@H]1CCC(C)=C[C@H]1c1c(O)cc(CCCCC)cc1O", "note": "[Cannabidiol]", "values": [{"measurement": "elimination half-life", "setting": "[1]", "result": "18 to 32", "unit": "h"}, {"measurement": "affinity for the cannabinoid CB2 receptor", "setting": "[2]", "result": "very low affinity"}]}
